Columns and labels:
Type in all cases: cell-based, mouse
[1] = tested on: ARG1 mRNA expression in RAW 264.7 cells; test: qRT-PCR of ARG1 mRNA in IL-4/IL-13-stimulated RAW 264.7 cells; details: 12 h, mean ± SD; for mrna remaining at 10 µM: RAW264.7, IL-4/IL-13 (20 ng/mL) plus compound 10 μM; for mrna remaining at 10 µM / ARG1 mRNA Relative Expression (%): stimulated control = 100%; for ARG1 mRNA Relative Expression (%): IL-4/IL-13 (20 ng/mL) plus compound 10 μM
Description: (§1) We first investigated the impacts of a series of commercially available natural pseudolaric acids or their O-pyranosides (Figure 1) on the pro-tumoral phenotype of TAMs, which play a critical role in anti-tumor immune response modulation. […] In contrast, M1-biased macrophages combat tumor growth and bacterial infections by expressing inducible nitric oxide synthase 2 (NOS2), which catalyzes the production of nitric oxide (NO). Recognizing the pivotal roles of ARG1 and NOS2, we utilized these molecules as key biomarkers and effectors for assessing macrophage immune function. In our experiments, the mouse monocyte–macrophage leukemia cell line RAW 264.7 was induced with IL-4/IL-13 to acquire an M2-like pro-tumoral phenotype. Concurrently, the cells were treated with the pseudolaric acid-related natural products 1–7 at a concentration of 10 μM for 12 h. Additionally, PLX3397 was used as a positive control at a concentration of 0.5 μM. […] As shown in Table 1 and Figure S1A, pseudolaric acid B (1), its deacetoxyl analogue 2 (pseudolaric acid C), and β-D-glucoside 7 substantially attenuated the upregulation of ARG1 mRNA expression induced by IL-4/IL-13, with statistically significant effects. In contrast, bis-carboxylic acids analogs 4 (pseudolaric acid C2) and 6 (demethoxydeacetoxypseudolaric acid B) have no significant impact on ARG1 mRNA expression.
(§2) With these carboxylic acid-modified derivatives in hand, we investigated their impact at 10 μM on ARG1 and NOS2 mRNA expression in RAW 264.7 cells pre-stimulated with IL-4/IL-13 to evaluate the effects on the pro-tumor phenotype of macrophages. […] Further removal of one hydroxyl from the glycerol moiety 15 further enhanced the inhibitory effect on ARG1 expression but had no significant impact on NOS2 expression.
(§3) Total RNA was isolated from cells using the EZ-press RNA Purification Kit (EZBioscience, Suzhou, China) and subjected to reverse transcription with the 5×HiScript II qRT SuperMix II (Vazyme, Nanjing, China). PCR was performed with the 2×ChamQ Universal SYBR qPCR Master Mix (Vazyme, Nanjing, China). All primers for qRT-PCR are described in Table S1. The 2^−∆∆Ct method was utilized to calculate the fold change in gene expression, with the expression levels in the stimulated group set as the baseline for normalization.

[2] = tested on: NOS2 mRNA expression in RAW 264.7 cells; test: qRT-PCR of NOS2 mRNA in IL-4/IL-13-stimulated RAW 264.7 cells; details: 12 h, mean ± SD; for activity at 10 µM: RAW264.7, IL-4/IL-13 (20 ng/mL) plus compound 10 μM; for activity at 10 µM / NOS2 mRNA Relative Expression (%): stimulated control = 100%; for NOS2 mRNA Relative Expression (%): IL-4/IL-13 (20 ng/mL) plus compound 10 μM
Description: as §1, §2, §3

Raw264.7 cells = test: Cell viability (CCK-8) of RAW264.7 cells; details: IL-4/IL-13 plus compound 10 μM, 12 h
Experimental: Cells were seeded in 96-well tissue culture plates. On the next day, cells were exposed to various concentrations of compounds and further cultured for the indicated period. Finally, cell proliferation was determined by using the Cell Counting Kit (CCK-8) (Dojindo, Kumamoto, Japan) assay.
Figure S2. Effects of natural pseudolaric acids 1-4, 6 and their O-pyranosides 5, 7 as well as the derivatives 8-18 o f 1 on Raw264.7 cell viability. Raw264.7 cells were treated with IL-4/IL-13 alone or combined with indicated compounds (10 μM) for 12 h. After incubation, the cell viability was determined using a cell counting kit (CCK-8, Dojindo, Japan) assay.
(1 picture or pasted object on this page, not shown here)

[3] = Mus musculus, read-out: ARG1 mRNA Relative Expression (%)
[4] = Mus musculus, read-out: NOS2 mRNA Relative Expression (%)

Row | Compound | mrna remaining at 10 µM [1, 3] [%] | activity at 10 µM [2, 4] [%] | also measured
1 | FC(F)(F)c1ccc(CNc2ccc(Cc3c[nH]c4ncc(Cl)cc34)cn2)cn1 [PLX3397, reference compound] |  |  | mrna remaining at 0.5 µM ([1]; Mus musculus, RAW264.7, IL-4/IL-13 (20 ng/mL) plus positive control 0.5 μM, read-out: ARG1 mRNA Relative Expression (%)): 3.2 ± 2.4%; activity at 0.5 µM ([2]; Mus musculus, RAW264.7, IL-4/IL-13 (20 ng/mL) plus positive control 0.5 μM, read-out: NOS2 mRNA Relative Expression (%)): 193 ± 10.2%
2 | COC(=O)C1=CC[C@@]23CC[C@@H]([C@@](C)(/C=C/C=C(\C)C(=O)O)OC2=O)[C@@]3(O)CC1 [compound 2, pseudolaric acid C, reference compound] | 17.3 ± 9.1 | 80.1 ± 15.6 | 
3 | CC(=O)O[C@]12CCC(C)=CC[C@]13CC[C@H]2[C@@](C)(/C=C/C=C(\C)C(=O)O)OC3=O [compound 3, pseudolaric acid A, reference compound] | 343 ± 27.9 | 297 ± 6.8 | 
4 | CC(=O)O[C@]12CCC(C(=O)O)=CC[C@]13CC[C@H]2[C@@](C)(/C=C/C=C(\C)C(=O)O)OC3=O [compound 4, pseudolaric acid C2, reference compound] | 87.4 ± 25.4 | 131 ± 14.5 | 
5 | CC(=O)O[C@]12CCC(C)=CC[C@]13CC[C@H]2[C@@](C)(/C=C/C=C(\C)C(=O)O[C@@H]1O[C@H](CO)[C@@H](O)[C@H](O)[C@H]1O)OC3=O [compound 5, reference compound] | 16.2 ± 9.2 | 158 ± 17.2 | 
6 | COC(=O)C1=CC[C@@]23CC[C@@H]([C@@](C)(/C=C/C=C(\C)C(=O)O[C@@H]4O[C@H](CO)[C@@H](O)[C@H](O)[C@H]4O)OC2=O)[C@@]3(OC(C)=O)CC1 [compound 7, reference compound] | 21.2 ± 13 | 307 ± 36.2 | cell viability (Raw264.7 cells): only a minimal reduction in cell viability
7 | COC(=O)C1=CC[C@@]23CC[C@@H]([C@@](C)(/C=C/C=C(\C)C(=O)NCC(F)(F)F)OC2=O)[C@@]3(OC(C)=O)CC1 [compound 9, Methyl (3R,4S,4aS,9aR)-4a-acetoxy-3-methyl-3-((1E,3E)-4-methyl-5-oxo-5-((2,2,2-trifluoroethyl)amino)penta-1,3-dien-1-yl)-1-oxo-3,4,4a,5,6,9-hexahydro-1H-4,9a-ethanocyclohepta[c]pyran-7-carboxylate] | 7.4 | 149 | NOS2 mRNA Relative Expression (%) [2]: 148.7 ± 14.1%
8 | COC(=O)C1=CC[C@@]23CC[C@@H]([C@@](C)(/C=C/C=C(\C)C(=O)NCC(C)O)OC2=O)[C@@]3(OC(C)=O)CC1 (stereo partly drawn) [compound 10, Methyl(3R,4S,4aS,9aR)-4a-acetoxy-3-((1E,3E)-5-((2-hydroxypropyl)amino)-4-methyl-5-oxopenta-1,3-dien-1-yl)-3-methyl-1-oxo-3,4,4a,5,6,9-hexahydro-1H-4,9a-ethanocyclohepta[c]pyran-7-carboxylate] | 7.5 | 103 ± 7.2 | 
9 | COC(=O)C1=CC[C@@]23CC[C@@H]([C@@](C)(/C=C/C=C(\C)C(=O)NCCN(CCO)CCO)OC2=O)[C@@]3(OC(C)=O)CC1 [compound 13, Methyl(3R,4S,4aS,9aR)-4a-acetoxy-3-((1E,3E)-5-((2-(bis(2-hydroxyethyl)amino)ethyl)amino)-4-methyl-5-oxopenta-1,3-dien-1-yl)-3-methyl-1-oxo-3,4,4a,5,6,9-hexahydro-1H-4,9a-ethanocyclohepta[c]pyran-7-carboxylate] | 72.2 ± 10.2 | 134 ± 5 | 
10 | COC(=O)C1=CC[C@@]23CC[C@@H]([C@@](C)(/C=C/C=C(\C)C(=O)NC(CO)(CO)CO)OC2=O)[C@@]3(OC(C)=O)CC1 [compound 14, Methyl(3R,4S,4aS,9aR)-4a-acetoxy-3-((1E,3E)-5-((1,3-dihydroxy-2-(hydroxymethyl)propan-2-yl)amino)-4-methyl-5-oxopenta-1,3-dien-1-yl)-3-methyl-1-oxo-3,4,4a,5,6,9-hexahydro-1H-4,9a-ethanocyclohepta[c]pyran-7-carboxylate] | 42.2 ± 9.5 | 136 ± 8 | 
11 | COC(=O)C1=CC[C@@]23CC[C@@H]([C@@](C)(/C=C/C=C(\C)C(=O)OC4O[C@H](COC(C)=O)[C@@H](OC(C)=O)C(OC(C)=O)[C@H]4OC(C)=O)OC2=O)[C@@]3(OC(C)=O)CC1 (stereo partly drawn) [compound 16, (3R,5R,6R)-2-(((2E,4E)-5-((3R,4S,4aS,9aR)-4a-Acetoxy-7-(methoxycarbonyl)-3-methyl-1-oxo-3,4,4a,5,6,9-hexahydro-1H-4,9a-ethanocyclohepta[c]pyran-3-yl)-2-methylpenta-2,4-dienoyl)oxy)-6-(acetoxymethyl)tetrahydro-2H-pyran-3,4,5-triyl triacetate] | 80 ± 27.5 | 95.2 ± 23 | 
12 | COC(=O)C1=CC[C@@]23CC[C@@H]([C@@](C)(/C=C/C=C(\C)C(=O)O[C@H]4OC[C@@H](OC(C)=O)[C@H](OC(C)=O)[C@H]4OC(C)=O)OC2=O)[C@@]3(OC(C)=O)CC1 [compound 17, (2R,3R,4S,5R)-2-(((2E,4E)-5-((3R,4S,4aS,9aR)-4a-Acetoxy-7-(methoxycarbonyl)-3-methyl-1-oxo-3,4,4a,5,6,9-hexahydro-1H-4,9a-ethanocyclohepta[c]pyran-3-yl)-2-methylpenta-2,4-dienoyl)oxy)tetrahydro-2H-pyran-3,4,5-triyl triacetate] | 32.3 ± 19.2 | 91.3 ± 6.9 | 
13 | (2E,4E)-5-((3R,4S,4aS,9aR)-4a-acetoxy-7-(methoxycarbonyl)-3-methyl-1-oxo-3,4,4a,5,6,9-hexahydro-1H-4,9a-ethanocyclohepta[c]pyran-3-yl)-2-methylpenta-2,4-dienoic acid [compound 15] |  |  | ARG1 mRNA Relative Expression (%) [1]: 18.7 ± 18.0%; NOS2 mRNA Relative Expression (%) [2]: 130.3 ± 5.8%
14 | (2R,3S,4S,5R,6R)-6-(((2E,4E)-5-((3R,4S,4aS,9aR)-4a-Acetoxy-7-(methoxycarbonyl)-3-methyl-1-oxo-3,4,4a,5,6,9-hexahydro-1H-4,9a-ethanocyclohepta[c]pyran-3-yl)-2-methylpenta-2,4-dienoyl)oxy)tetrahydro-2H-pyran-2,3,4,5-tetrayl tetraacetate [compound 18] |  |  | ARG1 mRNA Relative Expression (%) [1]: 42.6 ± 30.2%; NOS2 mRNA Relative Expression (%) [2]: 58.7 ± 4.5%

From paper PMC12114375, “Discovery of Hydrazineyl Amide Derivative of Pseudolaric Acid B for Reprogramming Tumor-Associated Macrophages Against Tumor Growth” (Molecules, 2025)
